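Step 1: Grow cells in 96-well plates. Step 2: Expose to compound for 48 hours at 5 concentrations. Step 3: Interpolate endpoints linearly; if unreached, use highest concentration. GI50 = concentration required for 50% inhibition of growth.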 The source made the active and inactive calls. Cut-off read from the data, not from the text of the source: active = GI50 up to about 1.1 µM and inactive = higher.
Key:
Test in all cases: NCI tumour cell line growth inhibition, 48 h
SNB-78 = tested on: SNB-78
UO-31 = tested on: UO-31
RXF 631 = tested on: RXF 631
OVCAR-4 = tested on: OVCAR-4
HOP-62 = tested on: HOP-62
SK-MEL-2 = tested on: SK-MEL-2
UACC-62 = tested on: UACC-62
SK-MEL-28 = tested on: SK-MEL-28
SF-268 = tested on: SF-268
RPMI-8226 = tested on: RPMI-8226
UACC-257 = tested on: UACC-257
HL-60 = tested on: HL-60
Malme-3M = tested on: Malme-3M
CCRF-CEM = tested on: CCRF-CEM
M19-MEL = tested on: M19-MEL
RXF 393 = tested on: RXF 393
IGROV-1 = tested on: IGROV-1
KM12 = tested on: KM12
NCI-H226 = tested on: NCI-H226
DMS-114 = tested on: DMS-114
A549 = tested on: A549
NCI-H460 = tested on: NCI-H460
A498 = tested on: A498
ACHN = tested on: ACHN
NCI-H522 = tested on: NCI-H522
CAKI-1 = tested on: CAKI-1
SF-539 = tested on: SF-539
MOLT-4 = tested on: MOLT-4
786-0 = tested on: 786-0
OVCAR-8 = tested on: OVCAR-8
SNB-19 = tested on: SNB-19
DMS-273 = tested on: DMS-273
SW-620 = tested on: SW-620
M14 = tested on: M14
SNB-75 = tested on: SNB-75
HCT-116 = tested on: HCT-116
SR = tested on: SR
DLD-1 = tested on: DLD-1
HCC 2998 = tested on: HCC 2998
LXFL 529 = tested on: LXFL 529
HCT-15 = tested on: HCT-15
SK-MEL-5 = tested on: SK-MEL-5
U-251 = tested on: U-251
HOP-18 = tested on: HOP-18
SK-OV-3 = tested on: SK-OV-3
K562 = tested on: K562
COLO 205 = tested on: COLO 205
TK-10 = tested on: TK-10
KM-20L2 = tested on: KM-20L2
SN12C = tested on: SN12C
HT-29 = tested on: HT-29
LOX IMVI = tested on: LOX IMVI
OVCAR-3 = tested on: OVCAR-3
EKVX = tested on: EKVX
HOP-92 = tested on: HOP-92
OVCAR-5 = tested on: OVCAR-5
NCI-H23 = tested on: NCI-H23
SF-295 = tested on: SF-295

Measured: GI50

CCOC(=O)NC/C=C/CO
inactive: SNB-78 > 100 µM | UO-31 > 100 µM | RXF 631 > 100 µM | OVCAR-4 > 100 µM | HOP-62 > 100 µM | SK-MEL-2 > 100 µM | UACC-62 > 100 µM | SK-MEL-28 > 100 µM | SF-268 > 100 µM | RPMI-8226 > 100 µM | UACC-257 > 100 µM | HL-60 > 100 µM | Malme-3M > 100 µM | CCRF-CEM > 100 µM | M19-MEL > 100 µM | RXF 393 > 100 µM | IGROV-1 > 100 µM | KM12 > 100 µM | NCI-H226 > 100 µM | DMS-114 > 100 µM | A549 > 100 µM | NCI-H460 > 100 µM | A498 > 100 µM | ACHN > 100 µM | NCI-H522 > 100 µM | CAKI-1 > 100 µM | SF-539 > 100 µM | MOLT-4 > 100 µM | 786-0 > 100 µM | OVCAR-8 > 100 µM | SNB-19 > 100 µM | DMS-273 > 100 µM | SW-620 > 100 µM | M14 > 100 µM | SNB-75 > 100 µM | HCT-116 > 100 µM | SR > 100 µM | DLD-1 > 100 µM | HCC 2998 > 100 µM | LXFL 529 > 100 µM | SK-MEL-5 > 100 µM | U-251 > 100 µM | HOP-18 > 100 µM | SK-OV-3 > 100 µM | K562 > 100 µM | COLO 205 > 100 µM | TK-10 > 100 µM | KM-20L2 > 100 µM | SN12C > 100 µM
> 100 µM: HCT-15

Clc1ccc(CCc2ccncn2)c(Cl)c1
inactive: SNB-78 61.5 µM | HT-29 > 100 µM | UO-31 38.5 µM | RXF 631 60.1 µM | OVCAR-4 > 100 µM | HOP-62 > 100 µM | SK-MEL-2 > 100 µM | LOX IMVI > 100 µM | UACC-62 53.2 µM | SK-MEL-28 > 100 µM | SF-268 77.3 µM | OVCAR-3 39.5 µM | RPMI-8226 25.5 µM | UACC-257 38.1 µM | HL-60 30.1 µM | Malme-3M 58.9 µM | M19-MEL 47.8 µM | EKVX 9.68 µM | RXF 393 27 µM | IGROV-1 > 100 µM | HOP-92 54.6 µM | KM12 63 µM | NCI-H226 60.5 µM | DMS-114 30.1 µM | A549 > 100 µM | NCI-H460 > 100 µM | A498 86.5 µM | ACHN > 100 µM | NCI-H522 37.7 µM | CAKI-1 50.2 µM | SF-539 > 100 µM | MOLT-4 29.3 µM | 786-0 > 100 µM | OVCAR-5 > 100 µM | OVCAR-8 97.3 µM | SNB-19 35.6 µM | DMS-273 97.5 µM | SW-620 > 100 µM | M14 > 100 µM | NCI-H23 49.3 µM | SNB-75 68.5 µM | HCT-116 52.5 µM | DLD-1 > 100 µM | HCC 2998 > 100 µM | LXFL 529 36.3 µM | SK-MEL-5 19.5 µM | U-251 41.5 µM | HOP-18 33.3 µM | SF-295 61.4 µM | SK-OV-3 > 100 µM | K562 63.8 µM | COLO 205 64.9 µM | TK-10 > 100 µM | KM-20L2 73.5 µM | SN12C > 100 µM
79.6 µM: HCT-15

COC(=O)C(C(=O)C(=O)Nc1ccccc1C(C)=O)c1nc2ccc(Cl)cc2nc1O (stereo unspecified)
> 100 µM: HCT-15
inactive: SNB-78 > 100 µM | HT-29 > 100 µM | UO-31 77.8 µM | RXF 631 > 100 µM | OVCAR-4 > 100 µM | HOP-62 > 100 µM | SK-MEL-2 > 100 µM | LOX IMVI > 100 µM | UACC-62 > 100 µM | SK-MEL-28 > 100 µM | SF-268 > 100 µM | OVCAR-3 > 100 µM | RPMI-8226 > 100 µM | UACC-257 > 100 µM | HL-60 > 100 µM | Malme-3M > 100 µM | CCRF-CEM > 100 µM | M19-MEL > 100 µM | EKVX 56.9 µM | RXF 393 89.7 µM | IGROV-1 > 100 µM | HOP-92 > 100 µM | KM12 > 100 µM | NCI-H226 78.3 µM | DMS-114 > 100 µM | A549 > 100 µM | NCI-H460 > 100 µM | A498 > 100 µM | ACHN > 100 µM | CAKI-1 > 100 µM | SF-539 > 100 µM | MOLT-4 > 100 µM | 786-0 > 100 µM | OVCAR-5 > 100 µM | OVCAR-8 > 100 µM | SNB-19 > 100 µM | SW-620 > 100 µM | M14 > 100 µM | NCI-H23 > 100 µM | SNB-75 99.5 µM | HCT-116 > 100 µM | DLD-1 > 100 µM | HCC 2998 > 100 µM | LXFL 529 > 100 µM | SK-MEL-5 > 100 µM | U-251 > 100 µM | HOP-18 53.5 µM | SF-295 > 100 µM | SK-OV-3 > 100 µM | K562 > 100 µM | COLO 205 > 100 µM | TK-10 > 100 µM | KM-20L2 > 100 µM | SN12C > 100 µM

From ChEMBL document CHEMBL1201862, “PubChem BioAssay data set” (2004)
